Test results as given in patent publication US20220241314A1, “COMPOSITIONS AND METHODS FOR TREATMENT OF HEPATITIS B VIRUS INFECTION” (priority 2019, published 2022).
Like-named read-outs stand apart in the source and are kept apart here. {ppp} = triphosphate

Legend:
HBV cccDNA = HBV cccDNA formation in infected differentiated HepaRG cells (Southern blot, RT-qPCR); format: cell-based, HBV (Genotype D); conditions: HBV 1000 Geq/cell, harvested 3 dpi; for IC50: read-out: IC50, decline of cccDNA relative to DMSO treated controls; for IC90: read-out: IC90, decline of cccDNA relative to DMSO treated controls
Experimental: The scheme illustrates the schedule with HBV inoculum (1000 Geq/cell) and administration of Cyclosporin A (CsA), F7, X-RNA and poly-U/UC PAMP. 2.5% DMSO was added to the medium at 1 day post infection (Dpi). cccDNA and PF RC DNA were harvested from HepG2-hNTCP cells using Hirt extraction method and analyzed by Southern blot analysis using an HBV-specific DNA probe. Viral protein-free DNAs (protein-free Relaxed Circular DNA [PF-RC DNA] and cccDNA) are noted. (2B and 2C) HepG2-hNTCP 2(B) or differentiated HepaRG cells (2C) were infected with HBV at moi of 1000 Geq/cell, and administered CsA (10 μM) or F7, in the indicated concentrations. For upper panels of (2B) and (2C), DNAs were isolated after Hirt extraction at 3 dpi and subjected to Southern blot analysis using as HBV-DNA probe. […] (2D and 2E) HepG2-hNTCP (2D) or dHepaRG cells (2E) were infected with HBV at an moi of 1000 Geq/cell, and administered CsA (10 μM), X-RNA (100 ng/ml), or poly-U/UC PAMP in the indicated concentrations. For upper panels of (2D) and (2E), DNAs were analyzed using Southern blot analysis. For lower panels of (2D) and (2E), DNAs were analyzed by RT-qPCR. IC90, and IC50 values were calculated based on the decline of the cccDNA relative to DMSO treated controls. IC90, and IC50 values are the average of three experiments±one standard deviation. […] Positions of mass markers are indicated on each Southern blot.
HBV infection HBV (Genotype D) was purified from the supernatant of HepAD38 cells by PEG concentration and subsequent sucrose gradient, as described previously (Ko, C., et al. (2014). DDX3 DEAD-Box RNA Helicase Is a Host Factor That Restricts Hepatitis B Virus Replication at the Transcriptional Level. Journal of Virology 88, 13689-13698; Watashi, K., et al. (2013), supra). For HBV infection cells were seeded into collagen-coated plates. One day later, the cells were infected with HBV in DMEM containing 4% polyethylene glycol 8000 (PEG-8000). The multiplicities of infection (expressed as virus genome equivalent/cell) are indicated in each Figure Legend. The inocula were removed 24 hours later, and the infected cultures were maintained in complete DMEM containing 2.5% DMSO until harvesting, as described previously (Ni, Y., et al. (2014). Hepatitis B and D viruses exploit sodium taurocholate co-transporting polypeptide for species-specific entry into hepatocytes. Gastroenterology 146, 1070-1083).
Reverse transcription quantitative real time qPCR (RT-qPCR) analysis: Total cellular RNAs were extracted from cells using TRIZOL reagent and the manufacturers protocol (Invitrogen). cDNA was synthesized from the purified RNA by both random and oligo (dT) priming using iScript select cDNA synthesis kit (Biorad, Inc.). […]

in vitro = conditions: human, HepG2-hNTCP cells (HepG2-C3A-hNTCP)
Experimental: HepG2-NTCP Cells (10A and 10C), dHepaRG (10B and 10D), and PHH (10E) were treated with increasing doses of F7 or poly-U/UC PAMP for 72 hours. Cell viability was determined concurrently by measuring ATP content, with values normalized to mock-treated cells. Graph represents the mean of triplicated samples in each of 3 independent experiments, with error bars showing standard deviation.ns=non-significant.
To determine the values of 90% of maximal Inhibitory concentration (IC90) and half-maximal Inhibitory concentration (IC50), as well as the cytotoxic concentration, CC50, of F7 and poly-U/UC, PAMP, two different cell lines were used, HepG2-hNTCP and dHepaRG cells.
Cytotoxicity assays: Cytotoxicity was evaluated from cultures of HepG2-C3A -hNTCP and dHepaRG cells using CellTiter-Glo as described (Edwards, T. C., et al. (2019). Inhibition of HBV replication by N-hydroxvisoquinolinedione and N-hydroxypyridinedinone ribonuclease H inhibitors. Antiviral research 164, 70-80). […] Cytotoxicity of each was measured with the ATP content as a measure of cell viability using the CellTiter-Glo™ reagent (Promega) per manufacturer's instructions. The plates were read using a luminescence plate reader (Berthold) and the relative luminescence unit (RLU) data generated from each well was calculated as percent signal compared to the untreated control. […]

[1] = Hepatitis B virus, differentiated HepaRG cells

| Molecule | IC50 (HBV cccDNA; [1]) [µM] | IC90 (HBV cccDNA; [1]) [µM] | CC50 at 72 h (in vitro) [µM] | IC50 (HBV cccDNA; dHepaRG cells) [µM] | IC90 (HBV cccDNA; dHepaRG cells) [µM] |
| --- | --- | --- | --- | --- | --- |
| O=C(Nc1ccc2nc(NC(=O)c3ccc4ccccc4c3)sc2c1)c1ccccc1 [F7, N-(6-benzamido-1,3-benzothiazol-2-yl)naphthalene-2-carboxamide] | ~3.38 | ~12.8 | > 40 | – | – |
| poly-U/UC PAMP: ~100 nt PAMP motif from the HCV genome comprising 5′ppp and the poly U/UC region, recognized by RIG-I; formulated in liposome (nucleic acid, RNA, 5' {ppp}, backbone and methylation of C not given here; formulated in liposome, ~100 nt PAMP motif from the HCV genome comprising 5′ppp and the poly U/UC region, recognized by RIG-I; formulated in liposome) GGCCAUCCUGUUUUUUUCCCUUUUUUUUUUUCUUUUUUUUUUUUUUUUUUUUUUUUUUUUUUUUUUCUCCUUUUUUUUUCCUCUUUUUUUCCUUUUCUUUCCUUU | – | – | – | ~0.00161 | ~0.0033 |
